Assays:
[1] = system: HepG2 human liver cells; test: inhibition of glucose production in HepG2 cells; format: cell-based
Method: (§1) The compound 2,2,15,15-tetramethylhexadecane-1,16-dioic acid (also designated M16αα), and also the compounds […] (M18αα) and 2,2,19,19-tetramethyl-[…]-1,20-dioic acid (M20αα), were tested for their effect on glucose uptake and production, and the expression of glucose- and lipid-related genes in in vitro models. […] Inhibition of glucose production was tested in HepG2 human liver cells.

[2] = system: genes that control liver gluconeogenesis and lipid synthesis; test: expression of glucose- and lipid-related genes in in vitro models; format: cell-based
Method: as §1

[3] = system: fully differentiated 3T3L1 adipocytes; test: glucose uptake in 3T3L1 adipocytes; format: cell-based; settings: insulin as positive control
Method: as §1

[4] = system: C57BL/KsJ (db/db) Spontaneous T2D mice; test: glucose lowering effect in db/db mice; format: in vivo; settings: once daily oral 30 mg/kg
Method: In addition, the glucose lowering effect of the above three compounds M16αα, M18αα and M20αα was tested in C57BL/KsJ (db/db) Spontaneous T2D mice, which serve as a model for T2D. These animals are characterized by hyperphagia, obesity, hyperglycemia and insulin resistance. The mice were treated once daily by oral administration of the tested compound at 30 mg/kg.

[5] = system: cultured human HepG2 liver cells; test: inhibition of lipoprotein production in HepG2 cells; format: cell-based
[6] = half-life in rats; settings: rat, in vivo, read-out: half-life (T1/2) (converted)
Excerpt: (§2) The half-life (T1/2) of Medica compounds in humans differs considerably from their half-life in model animals. […] This difference in half-life could not be expected, and is of considerable significance when designing a new treatment protocol for humans.

[7] = half-life in dogs; settings: dog, in vivo, read-out: half-life (T1/2) (converted)
Excerpt: as §2

[8] = half-life in humans; format: in vivo; settings: human, in vivo, read-out: half-life (T1/2) (converted)
Excerpt: as §2

half-life [6] [h]	half-life [7] [h]	half-life [8] [h]	Compound	hepatic glucose production [1]	expression of genes that control liver gluconeogenesis and lipid synthesis [2]	glucose uptake [3]	blood glucose levels [4]	serum insulin levels [4]	serum triglyceride levels [4]	lipoprotein production [5]
			CC(C)(CCCCCCCCCCCCCCC(C)(C)C(=O)O)C(=O)O [M18αα, 2,2,17,17-tetramethylocta-decane-1,18-dioic acid]	significant or full inhibition	effective in inhibiting	increase glucose uptake	significantly decrease	significantly decrease	significantly decrease	significant or full inhibition
			CC(C)(CCCCCCCCCCCCCCCCC(C)(C)C(=O)O)C(=O)O [M20αα]	significant or full inhibition	effective in inhibiting	increase glucose uptake	significantly decrease	significantly decrease	significantly decrease	significant or full inhibition
2.7 ± 0.4	25.8	31.5 ± 12.8	CC(C)(CCCCCCCCCCC(C)(C)CC(=O)O)CC(=O)O [Medica16-ββ, 3,3,14,14-tetramethylhexadecanedioic acid, reference compound]							
